{"source": "patent US12577257B2", "about": "“Heterocyclic compounds” (Hoffmann-La Roche Inc., priority 2018, dated 2026)", "data": [{"target": "T1, MAGL (recombinant wild-type) (Homo sapiens, UniProt Q99685)", "T1 sequence (Q99685 1-303)": "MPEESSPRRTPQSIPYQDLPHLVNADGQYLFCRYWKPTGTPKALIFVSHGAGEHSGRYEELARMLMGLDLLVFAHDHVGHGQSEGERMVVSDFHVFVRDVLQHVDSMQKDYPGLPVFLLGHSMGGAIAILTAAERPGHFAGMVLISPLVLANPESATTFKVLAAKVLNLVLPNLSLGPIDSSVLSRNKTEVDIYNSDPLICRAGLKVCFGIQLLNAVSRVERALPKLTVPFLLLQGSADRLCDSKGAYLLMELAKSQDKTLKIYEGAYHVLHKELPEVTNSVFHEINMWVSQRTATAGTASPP", "test": "4-NPA assay: MAGL hydrolysis of 4-nitrophenylacetate, absorbance at 405 nm", "type": "biochemical", "conditions": "footnote [b]: measured in 4-NPA assay", "method": "(§1) Compounds were profiled for MAGL inhibitory activity by measuring the enzymatic activity of MAGL by following the hydrolysis of 4-nitrophenylacetate resulting in 4-nitrophenol, which absorbs at 405-412 nm (G. G. Muccioli, G. Labar, D. M. Lambert, Chem. Bio. Chem. 2008, 9, 2704-2710). This assay is hereinafter abbreviated “4-NPA assay”.\n(§2) The 4-NPA assay was carried out in 384 well assay plates (black with clear bottom, non-binding surface treated, Corning Ref. 3655) in a total volume of 40 μL. Compound dilutions were made in 100% DMSO (VWR Chemicals 23500.297) in a polypropylene plate in 3-fold dilution steps to give a final concentration range in the assay from 25 μM to 1.7 nM. 1 μL compound dilutions (100% DMSO) were added to 19 μL MAGL (recombinant wild-type) in assay buffer (50 mM TRIS (GIBCO, 15567-027), 1 mM EDTA (Fluka, 03690-100 ml)). The plate was shaked for 1 min at 2000 rpm (Variomag Teleshake) and then incubated for 15 min at RT. To start the reaction, 20 μL 4-Nitrophenylacetate (Sigma N-8130) in assay buffer with 6% EtOH was added. The final concentrations in the assay were 1 nM MAGL and 300 μM 4-Nitrophenylacetate. After shaking (1 min, 2000 rpm) and 5 min incubation at RT, the absorbance at 405 nm was measured for a first time (Molecular Devices, SpectraMax Paradigm). A second measurement was then done after incubation for 80 min at RT. From the two measurements, the slope was calculated by subtracting the first from the second measurement.", "units": {"IC50": "nM"}, "values": [{"smiles": "O=C1CO[C@H]2CCN(C(=O)N3CCC4(C3)CN(C(c3ccccc3)c3ccccc3)C4)C[C@H]2N1", "note": "(racemic) [Example 20, rac-(4aR,8aS)-6-(2-Benzhydryl-2,6-diazaspiro[3.4]octane-6-carbonyl)hexahydro-2H-pyrido[4,3-b][1,4]oxazin-3(4H)-one]", "IC50": 2690}, {"smiles": "O=C1CO[C@H]2CCN(C(=O)N3CCC4(CC3)CN(S(=O)(=O)c3ccc(F)cc3)CCO4)C[C@H]2N1", "note": "(racemic) [Example 21, rac-(4aR,8aS)-6-(4-((4-Fluorophenyl)sulfonyl)-1-oxa-4,9-diazaspiro[5.5]undecane-9-carbonyl)hexahydro-2H-pyrido[4,3-b][1,4]oxazin-3(4H)-one]", "IC50": 836}, {"smiles": "CC(C)(C)OC(=O)N1CC2(CCN(C(=O)N3CC[C@@H]4OCC(=O)N[C@@H]4C3)C2)C1", "note": "(racemic) [Int-1, rac-tert-Butyl 6-((4aR,8aS)-3-oxooctahydro-2H-pyrido[4,3-b][1,4]oxazine-6-carbonyl)-2,6-diazaspiro[3.4]octane-2-carboxylate]", "IC50": 539}, {"smiles": "O=C1CO[C@H]2CCN(C(=O)N3CCC4(CC3)CN(S(=O)(=O)c3ccccc3)C4)C[C@H]2N1", "note": "[Example 39, (4aR,8aS)-6-(2-(Phenylsulfonyl)-2,7-diazaspiro[3.5]nonane-7-carbonyl)hexahydro-2H-pyrido[4,3-b][1,4]oxazin-3(4H)-one]", "IC50": 599}]}, {"target": "T2, MAGL (Homo sapiens, UniProt Q99685)", "T2 sequence (Q99685 1-303)": "T1 sequence (Q99685 1-303)", "test": "MAGL inhibition, Table 1 values with no assay marker (2-AG or 4-NPA assay not stated)", "type": "biochemical", "conditions": "not given", "method": "as §1, §2\nAlternatively, compounds were profiled for MAGL inhibitory activity by determining the enzymatic activity by following the hydrolysis of the natural substrate 2-arachidonoylglycerol resulting in arachidonic acid, which can be followed by mass spectrometry. This assay is hereinafter abbreviated “2-AG assay”.\nThe 2-AG assay was carried out in 384 well assay plates (PP, Greiner Cat #784201) in a total volume of 20 μL. Compound dilutions were made in 100% DMSO (VWR Chemicals 23500.297) in a polypropylene plate in 3-fold dilution steps to give a final concentration range in the assay from 12.5 μM to […]. 0.25 μL compound dilutions (100% DMSO) were added to 9 μL MAGL in assay buffer (50 mM TRIS (GIBCO, 15567-027), 1 mM EDTA (Fluka, 03690-100 ml), 0.01% (v/v) Tween. After shaking, the plate was incubated for 15 min at RT. To start the reaction, 10 μL 2-arachidonoylglycerol in assay buffer was added. The final concentrations in the assay was […] and 8 μM 2-arachidonoylglycerol. After shaking and 30 min incubation at RT, the reaction was quenched by the addition of 40 μL of acetonitrile containing 4 μM of d8-arachidonic acid. The amount of arachidonic acid was traced by an online SPE system (Agilent Rapidfire) coupled to a triple quadrupole mass spectrometer (Agilent 6460). A C18 SPE cartridge (G9205A) was used in an acetonitrile/water liquid setup. The mass spectrometer was operated in negative electrospray mode following the mass transitions 303.1→259.1 for arachidonic acid and 311.1→267.0 for d8-arachidonic acid. The activity of the compounds was calculated based on the ratio of intensities [arachidonic acid/d8-arachidonic acid].", "units": {"IC50": "nM"}, "values": [{"smiles": "O=C1CO[C@H]2CCN(C(=O)N3CC4(CC(S(=O)(=O)c5ccc(F)cc5Cl)C4)C3)C[C@H]2N1", "note": "[Example 67, (4aR,8aS)-6-(6-((2-chloro-4-fluorophenyl)sulfonyl)-2-azaspiro[3.3]heptane-2-carbonyl)hexahydro-2H-pyrido[4,3-b][1,4]oxazin-3(4H)-one]", "IC50": 67.1}, {"smiles": "O=C1CO[C@H]2CCN(C(=O)N3CC4(C3)CN(S(=O)(=O)c3ccc(C(F)(F)F)c(Cl)c3)C4)C[C@H]2N1", "note": "[Example 68, (4aR,8aS)-6-(6-((3-chloro-4-(trifluoromethyl)phenyl)sulfonyl)-2,6-diazaspiro[3.3]heptane-2-carbonyl)hexahydro-2H-pyrido[4,3-b][1,4]oxazin-3(4H)-one]", "IC50": 357}, {"smiles": "O=C1CO[C@H]2CCN(C(=O)N3CC4(C3)CN(S(=O)(=O)c3ccc(C(F)(F)F)cc3C(F)(F)F)C4)C[C@H]2N1", "note": "[Example 69, (4aR,8aS)-6-(6-((2,4-bis(trifluoromethyl)phenyl)sulfonyl)-2,6-diazaspiro[3.3]heptane-2-carbonyl)hexahydro-2H-pyrido[4,3-b][1,4]oxazin-3(4H)-one]", "IC50": 214}, {"smiles": "COc1cccc(F)c1CC1CC2(C1)CN(C(=O)N1CC[C@@H]3OCC(=O)N[C@@H]3C1)C2", "note": "[Example 71, (4aR,8aS)-6-(6-(2-fluoro-6-methoxybenzyl)-2-azaspiro[3.3]heptane-2-carbonyl)hexahydro-2H-pyrido[4,3-b][1,4]oxazin-3(4H)-one]", "IC50": 0.1}, {"smiles": "O=C1CO[C@H]2CCN(C(=O)N3CC4(CC(Cc5c(O)cccc5F)C4)C3)C[C@H]2N1", "note": "[Example 73, (4aR,8aS)-6-(6-(2-fluoro-6-hydroxybenzyl)-2-azaspiro[3.3]heptane-2-carbonyl)hexahydro-2H-pyrido[4,3-b][1,4]oxazin-3(4H)-one]", "IC50": 0.1}, {"smiles": "O=C1CO[C@H]2CCN(C(=O)N3CC4(CC(Cc5ccccc5O)C4)C3)C[C@H]2N1", "note": "[Example 74, (4aR,8aS)-6-(6-(2-hydroxybenzyl)-2-azaspiro[3.3]heptane-2-carbonyl)hexahydro-2H-pyrido[4,3-b][1,4]oxazin-3(4H)-one]", "IC50": 0.5}]}]}
